Tests used:
Type in all cases: functional, Homo sapiens
Design in all cases: dose or concentration left out as unconfirmed
Colon cancer organoid [1] = test: Optimized Dual-Glo assay to identify co-culture induced drug vulnerabilities using donated chemical probes and chemogenomics kinase set in O20 CRC organoid and F20 CAF mono and co-culture. […] Cell viability is reported both mono and co-culture models.
Colon cancer organoid [2] = test: Optimized Dual-Glo assay to identify co-culture induced drug vulnerabilities using donated chemical probes and chemogenomics kinase set in O14 CRC organoid and F14 CAF mono and co-culture. […] Cell viability is reported both mono and co-culture models.
Colon cancer organoid [3] = test: Optimized Dual-Glo assay to identify co-culture induced drug vulnerabilities using donated chemical probes and chemogenomics kinase set in O06 CRC organoid and F06 CAF mono and co-culture. […] Cell viability is reported both mono and co-culture models.
[4] = Culture type Co-Culture, Transduced with Lucferase2-P2A-EGFP lentivirus
[5] = Culture type Co-Culture, Transduced with Renilla-dsRed lentivirus
[6] = Culture type Mono-Culture, Transduced with Lucferase2-P2A-EGFP lentivirus
[7] = Culture type Mono-Culture, Transduced with Renilla-dsRed lentivirus

SMILES	Cell Viability (Colon cancer organoid [1]; [4])	Cell Viability (Colon cancer organoid [1]; [5])	Cell Viability (Colon cancer organoid [1]; [6])	Cell Viability (Colon cancer organoid [1]; [7])	Cell Viability (Colon cancer organoid [2]; [4])	Cell Viability (Colon cancer organoid [2]; [5])	Cell Viability (Colon cancer organoid [2]; [6])	Cell Viability (Colon cancer organoid [2]; [7])	Cell Viability (Colon cancer organoid [3]; [4])	Cell Viability (Colon cancer organoid [3]; [5])	Cell Viability (Colon cancer organoid [3]; [6])	Cell Viability (Colon cancer organoid [3]; [7])
CC(=O)Nc1cccc(-n2c(=O)n(C3CC3)c(=O)c3c(Nc4ccc(I)cc4F)n(C)c(=O)c(C)c32)c1 [TRAMETINIB]	2.051%	46.1337%	3.859%	28.7914%	1.363%	9.093%	1.0764%	6.441%	4.434%	57.2708%	3.321%	25.6485%
CCN(CCO)CCCOc1ccc2c(Nc3cc(CC(=O)Nc4cccc(F)c4)[nH]n3)ncnc2c1 [DEFOSBARASERTIB]	5.365%	225.013%	11.3206%	105.29%	15.638%	174.95%	26.1499%	95.9515%	10.7234%	183.999%	3.3988%	94.753%
O=C(NCCCN1CCOC1=O)c1cnc(NCc2cc(Br)ccc2Br)nc1NC1CCCC1	103.947%	94.0994%	97.7699%	110.221%	74.8932%	125.798%	157.235%	136.857%	110.394%	154.807%	109.931%	185.402%
CCOC(=O)CCNc1cc(N2CCc3ccccc3CC2)nc(-c2ccccn2)n1	100.893%	127.032%	66.9069%	85.0003%	81.7654%	97.685%	98.6348%	109.679%	103.039%	116.98%	128.06%	112.043%
COc1cc(Nc2nc(C)cc(-c3cnn4nc(OC)ccc34)n2)cc(C(F)(F)F)c1	136.021%	99.6244%	133.384%	109.532%	103.629%	105.362%	103.076%	99.2277%	131.373%	124.179%	105.332%	118.145%
C=CC(=O)N1CCC([C@@H]2CCNc3c(C(N)=O)c(-c4ccc(Oc5ccccc5)cc4)nn32)CC1 [ZANUBRUTINIB]	8.425%	202.782%	10.0679%	138.33%	47.5574%	261.02%	57.577%	123.54%	36.1998%	136.235%	10.7372%	131.234%
CN(C)CCOc1ccc(-c2nc(-c3ccncc3)c(-c3ccc4c(c3)CC/C4=N\O)[nH]2)cc1 [SB590885]	155.192%	68.1541%	66.5679%	111.294%	125.618%	131.894%	138.834%	91.3736%	79.2379%	96.48%	138.873%	135.694%
C[C@@H]1CC(=O)Nc2cccc(-c3ccc4c(c3)c(-c3cnn(C)c3)nn4C)c2N1	69.0231%	148.573%	48.9735%	106.497%	64.6948%	192.573%	92.2277%	159.466%	96.7982%	166.358%	47.1538%	205.908%
CC(C)C(=O)Nc1n[nH]c2cc(-c3cccc(NS(=O)(=O)C4CC4)c3)ccc12	85.5363%	102.387%	113.542%	124.62%	100.589%	100.218%	136.967%	94.5263%	155.711%	134.333%	107.561%	124.696%

— ChEMBL document CHEMBL5674860, “Optimized Dual-Glo Assay to identify co-culture-induced drug vulnerabilities in 3D CRC models” (2024)
